The source of these data is patent publication US8404643B2, “Metastin derivatives and use thereof” (priority 2005, dated 2013).

SMILES strings stand for the structures. Numbered stars: 1 amine (or outer) side, 2 acyl side, 3 side chain; on linkers, the order of the positions; unused ones are H or OH. Square brackets hold non-standard residues; d marks the D form. Peptide text beside a SMILES is read from it. * marks the point of attachment. Nip(3R) = O=C([C@@H]1CCCN([*:1])C1)[*:2]; Arg(Me) = CNC(=N)NCCC[C@H](N)C(=O)O; Dap(CONH2) = NC(=O)NC[C@H](N)C(=O)O; Hyp = O=C(O)[C@@H]1C[C@@H](O)CN1; d4Pal = N[C@H](Cc1ccncc1)C(=O)O; Pip = O=C(O)[C@@H]1CCCCN1; NMeA = CN[C@@H](C)C(=O)O; Thz = O=C(O)[C@@H]1CSCN1; Aze = O=C(O)[C@@H]1CCN1; 2Abz = Nc1ccccc1C(=O)O; Aib = CC(C)(N)C(=O)O; NHBn = c1ccc(CN*)cc1; azaGly = NNC(=O)O; NHcPr = C1CC1N*

The target in the experiment is T1, hOT7T175 (Homo sapiens, UniProt Q969F8).
T1 construct: expressed in transfected cells
Put plainly: Assay for intracellular Ca ion level-increasing activity using FLIPR. The conditions noted are these: hOT7T175/CHO cells, relative to Metastin (1-54). The experiment is classed as cell-based. On the procedure: In accordance with the method described in JPA 2000-312590, the intracellular Ca ion level-increasing activity was measured using FLIPR.
The stable expression cell line hOT7T175 was obtained by transfection of the expression plasmid pAK-rOT175 for animal cells into CHO/dhfr^− cells, using CellPhect Transfection Kit (Amersham Pharmacia Biotech, Inc.). First, 240 μL of Buffer A (attached to CellPhect Transfection Kit) was added to 9.6 μg of plasmid DNA dissolved in 240 μL of distilled water followed by stirring. After the mixture was settled for 10 minutes, 480 μL of Buffer B (attached to CellPhect Transfection Kit) was added to the mixture, which was vigorously stirred to form liposomes containing the DNA. Then, 4×10^5 CHO/dhfr^− cells (obtained from ATCC) were inoculated on a 60 mm Petri dish. After culturing the cells in Ham's F-12 medium (Nissui Seiyaku Co., Ltd.) supplemented with 10% fetal bovine serum (BIO WHITTAKER, Inc.) at 37° C. for 2 days in 5% carbon dioxide gas, […] of the liposomes were dropwise added to the cells on the Petri dish. After culturing the cells at 37° C. for 6 hours in 5% carbon dioxide gas, the cells were washed twice with serum-free Ham's F-12 medium and 3 mL of 15% glycerol was added to the cells on the Petri dish followed by treatment for 2 minutes. The cells were again washed twice with serum-free Ham's F-12 medium followed by incubation in Ham's F-12 medium supplemented with 10% fetal bovine serum at 37° C. for 15 hours in 5% carbon dioxide gas. The cells were dispersed by trypsin treatment to recover from the Petri dish. The recovered cells were inoculated on a 6-well plate in 1.25×10^4 cells/well and incubation was initiated at 37° C. in Dulbecco's modified Eagle medium (DMEM) medium (Nissui Seiyaku Co., Ltd.) containing 10% dialyzed fetal bovine serum (JRH BIOSCIENCES, Inc.) in 5% carbon dioxide gas. The plasmid-transfected CHO transformants grew in the medium but the non-transfected cells gradually died, accordingly the medium was exchanged on Days 1 and 2 after the initiation of incubation to remove the cells died. Approximately 20 colonies of the CHO transformants that kept growing on Days 8 to 10 after the incubation were isolated. From the cells in these colonies, cells showing high reactivity with the ligand peptide metastin (hereinafter merely referred to as hOT7T175/CHO) were selected to provide for the following experiment.
The intracellular Ca ion level-increasing activity of the synthetic peptide in hOT7T175/CHO was determined using FLIPR (Molecular Devices, Inc.).
hOT7T175/CHO was subcultured in DMEM supplemented with 10% dialyzed fetal bovine serum (hereinafter abbreviated as dFBS) (hereinafter referred to as 10% dFBS/DMEM) and provided for the experiment. The hOT7T175/CHO was suspended in 10% dFBS-DMEM in 15×10^4 cells/ml. The suspension was inoculated on a 96-well plate for FLIPR (Black Plate Clear Bottom, Coster, Inc.) at 200 μl/well (3.0×10^4 cells/200 μL/well), followed by incubation at 37° C. overnight in a 5% CO2 incubator (hereinafter referred to as the cell plate). Then, 21 ml of HANKS/HBSS (9.8 g of HANKS, 0.35 g of sodium hydrogencarbonate, 20 ml of 1M HEPES; after adjusting the pH to 7.4 with 1N sodium hydroxide, the mixture was sterilized by filtration), 210 μl of 250 mM Probenecid and 210 μl of fetal bovine serum (FBS) (HANKS/HBSS-Probenecid-FBS) were mixed.
Furthermore, 2 vials of Fluo3-AM (50 μg/vial) were dissolved in 21 μL of dimethylsulfoxide and 21 μL of 20% Pluronic acid. The resulting solution was added to and mixed with 10 ml of the HANKS/HBSS-Probenecid-FBS described above. After the culture medium was removed, the mixture was dispensed onto the cell plate in 100 μl each/well, followed by incubation at 37° C. for an hour in a 5% CO2 incubator (pigment loading). The peptide was dissolved in dimethylsulfoxide in 1×10^−3 M. The peptide solution was diluted with HANKS/HBSS containing 2.5 mM Probenecid, 0.2% BSA and 0.1% CHAPS. […]

T1 sequence (Q969F8 whole entry L364H): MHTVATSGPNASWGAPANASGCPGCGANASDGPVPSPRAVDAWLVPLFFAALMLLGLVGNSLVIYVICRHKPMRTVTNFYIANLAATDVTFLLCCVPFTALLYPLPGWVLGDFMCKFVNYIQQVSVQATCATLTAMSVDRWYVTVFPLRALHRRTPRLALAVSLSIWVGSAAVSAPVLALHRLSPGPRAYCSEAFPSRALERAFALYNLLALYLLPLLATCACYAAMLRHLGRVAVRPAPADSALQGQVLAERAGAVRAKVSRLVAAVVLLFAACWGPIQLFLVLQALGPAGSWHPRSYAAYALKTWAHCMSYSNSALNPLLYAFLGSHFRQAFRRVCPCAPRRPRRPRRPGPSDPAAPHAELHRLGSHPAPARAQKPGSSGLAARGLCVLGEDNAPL

Turning to `CNC(=N)NCCC[C@H](NC(=O)[C@H](CC(C)C)NC(=O)NNC(=O)[C@H](Cc1ccccc1)NC(=O)[C@@H](NC(=O)[C@H](CC(=O)NC1CC1)NC(=O)[C@@H](Cc1c[nH]c2ccccc12)NC(=O)[C@@H](Cc1ccc(O)cc1)NC(C)=O)[C@@H](C)O)C(=O)N[C@@H](Cc1c[nH]c2ccccc12)C(N)=O` [Compound No. 715, Ac-D-Tyr-D-Trp-Asp(NHcPr)-Thr-Phe-AzaGly-Leu-Arg(Me)-Trp-NH2] (Ac-[dY][dW]D(NHcPr)TF[azaGly]L[Arg(Me)]W-NH2), the “Specific Activity: intracellular Ca ion level-increasing activity [specific activity to Metastin (1-54)]” value is on record as 1.6. In the case of `CNC(=N)NCCC[C@H](NC(=O)[C@H](CC(C)C)NC(=O)NNC(=O)[C@H](Cc1ccccc1)NC(=O)[C@@H](NC(=O)[C@H](CC(=O)NCc1ccccc1)NC(=O)[C@@H](Cc1c[nH]c2ccccc12)NC(=O)[C@@H](Cc1ccc(O)cc1)NC(C)=O)[C@@H](C)O)C(=O)N[C@@H](Cc1c[nH]c2ccccc12)C(N)=O` [Compound No. 716, Ac-D-Tyr-D-Trp-Asp(NHBzl)-Thr-Phe-AzaGly-Leu-Arg(Me)-Trp-NH2] (Ac-[dY][dW]D(NHBn)TF[azaGly]L[Arg(Me)]W-NH2) it was 3.6; in that of `CNC(=N)NCCC[C@H](NC(=O)[C@H](CC(C)C)NC(=O)NNC(=O)[C@H](Cc1ccccc1)NC(=O)[C@@H](NC(=O)[C@H](CNC(N)=O)NC(=O)[C@@H](Cc1c[nH]c2ccccc12)NC(=O)[C@@H](Cc1ccc(O)cc1)NC(C)=O)[C@@H](C)O)C(=O)N[C@@H](Cc1c[nH]c2ccccc12)C(N)=O` [Compound No. 717, Ac-D-Tyr-D-Trp-Alb-Thr-Phe-AzaGly-Leu-Arg(Me)-Trp-NH2] (Ac-[dY][dW][Dap(CONH2)]TF[azaGly]L[Arg(Me)]W-NH2), 1.0. Turning to `CNC(=N)NCCC[C@H](NC(=O)[C@H](CC(C)C)NC(=O)NNC(=O)[C@H](Cc1ccccc1)NC(=O)[C@@H](NC(=O)[C@H](CNC(N)=O)NC(=O)[C@@H](Cc1ccncc1)NC(=O)[C@@H](Cc1ccc(O)cc1)NC(C)=O)[C@@H](C)O)C(=O)N[C@@H](Cc1c[nH]c2ccccc12)C(N)=O` [Compound No. 718, Ac-D-Tyr-D-Pya(4)-Alb-Thr-Phe-AzaGly-Leu-Arg(Me)-Trp-NH2] (Ac-[dY][d4Pal][Dap(CONH2)]TF[azaGly]L[Arg(Me)]W-NH2), the “Specific Activity: intracellular Ca ion level-increasing activity [specific activity to Metastin (1-54)]” value is reported as 2.6. In the case of `CNC(=N)NCCC[C@H](NC(=O)[C@H](CC(C)C)NC(=O)NNC(=O)[C@H](Cc1ccccc1)NC(=O)[C@@H](NC(=O)[C@H](CC(N)=O)NC(=O)[C@@H]1CCN1C(=O)[C@@H](Cc1ccc(O)cc1)NC(C)=O)[C@@H](C)O)C(=O)N[C@@H](Cc1c[nH]c2ccccc12)C(N)=O` [Compound No. 720, Ac-D-Tyr-Aze(2)-Asn-Thr-Phe-AzaGly-Leu-Arg(Me)-Trp-NH2] (Ac-[dY][Aze]NTF[azaGly]L[Arg(Me)]W-NH2), the “Specific Activity: intracellular Ca ion level-increasing activity [specific activity to Metastin (1-54)]” value worked out at 0.8. Turning to `CNC(=N)NCCC[C@H](NC(=O)[C@H](CC(C)C)NC(=O)NNC(=O)[C@H](Cc1ccccc1)NC(=O)[C@@H](NC(=O)[C@H](CC(N)=O)NC(=O)[C@@H]1CCCCN1C(=O)[C@@H](Cc1ccc(O)cc1)NC(C)=O)[C@@H](C)O)C(=O)N[C@@H](Cc1c[nH]c2ccccc12)C(N)=O` [Compound No. 721, Ac-D-Tyr-Pic(2)-Asn-Thr-Phe-AzaGly-Leu-Arg(Me)-Trp-NH2] (Ac-[dY][Pip]NTF[azaGly]L[Arg(Me)]W-NH2), the “Specific Activity: intracellular Ca ion level-increasing activity [specific activity to Metastin (1-54)]” value worked out at 1.1. Take `CNC(=N)NCCC[C@H](NC(=O)[C@H](CC(C)C)NC(=O)NNC(=O)[C@H](Cc1ccccc1)NC(=O)[C@@H](NC(=O)[C@H](CC(N)=O)NC(=O)[C@@H]1CCCN(C(=O)[C@@H](Cc2ccc(O)cc2)NC(C)=O)C1)[C@@H](C)O)C(=O)N[C@@H](Cc1c[nH]c2ccccc12)C(N)=O` [Compound No. 722, Ac-D-Tyr-Pic(3)-Asn-Thr-Phe-AzaGly-Leu-Arg(Me)-Trp-NH2] (Ac-[dY][Nip(3R)]NTF[azaGly]L[Arg(Me)]W-NH2): the “Specific Activity: intracellular Ca ion level-increasing activity [specific activity to Metastin (1-54)]” value is on record as 2.2.

Consider `CNC(=N)NCCC[C@H](NC(=O)[C@H](CC(C)C)NC(=O)NNC(=O)[C@H](Cc1ccccc1)NC(=O)[C@@H](NC(=O)[C@H](CC(N)=O)NC(=O)[C@@H]1C[C@@H](O)CN1C(=O)[C@@H](Cc1ccc(O)cc1)NC(C)=O)[C@@H](C)O)C(=O)N[C@@H](Cc1c[nH]c2ccccc12)C(N)=O` [Compound No. 723, Ac-D-Tyr-Hyp-Asn-Thr-Phe-AzaGly-Leu-Arg(Me)-Trp-NH2] (Ac-[dY][Hyp]NTF[azaGly]L[Arg(Me)]W-NH2), for which the “Specific Activity: intracellular Ca ion level-increasing activity [specific activity to Metastin (1-54)]” value is 2.0. Turning to `CNC(=N)NCCC[C@H](NC(=O)[C@H](CC(C)C)NC(=O)NNC(=O)[C@H](Cc1ccccc1)NC(=O)[C@@H](NC(=O)[C@H](CC(N)=O)NC(=O)[C@@H]1CSCN1C(=O)[C@@H](Cc1ccc(O)cc1)NC(C)=O)[C@@H](C)O)C(=O)N[C@@H](Cc1c[nH]c2ccccc12)C(N)=O` [Compound No. 724, Ac-D-Tyr-Thz-Asn-Thr-Phe-AzaGly-Leu-Arg(Me)-Trp-NH2] (Ac-[dY][Thz]NTF[azaGly]L[Arg(Me)]W-NH2), the “Specific Activity: intracellular Ca ion level-increasing activity [specific activity to Metastin (1-54)]” value worked out at 1.4. In the case of `CNC(=N)NCCC[C@H](NC(=O)[C@H](CC(C)C)NC(=O)NNC(=O)[C@H](Cc1ccccc1)NC(=O)[C@@H](NC(=O)[C@H](CC(N)=O)NC(=O)[C@H](C)N(C)C(=O)[C@@H](Cc1ccc(O)cc1)NC(C)=O)[C@@H](C)O)C(=O)N[C@@H](Cc1c[nH]c2ccccc12)C(N)=O` [Compound No. 725, Ac-D-Tyr-NMeAla-Asn-Thr-Phe-AzaGly-Leu-Arg(Me)-Trp-NH2] (Ac-[dY][NMeA]NTF[azaGly]L[Arg(Me)]W-NH2) it was 2.7; in that of `CNC(=N)NCCC[C@H](NC(=O)[C@H](CC(C)C)NC(=O)NNC(=O)[C@H](Cc1ccccc1)NC(=O)[C@@H](NC(=O)[C@H](CC(N)=O)NC(=O)CNC(=O)[C@@H](Cc1ccc(O)cc1)NC(C)=O)[C@@H](C)O)C(=O)N[C@@H](Cc1c[nH]c2ccccc12)C(N)=O` [Compound No. 726, Ac-D-Tyr-Gly-Asn-Thr-Phe-AzaGly-Leu-Arg(Me)-Trp-NH2] (Ac-[dY]GNTF[azaGly]L[Arg(Me)]W-NH2), 3.1; in that of `CNC(=N)NCCC[C@H](NC(=O)[C@H](CC(C)C)NC(=O)NNC(=O)[C@H](Cc1ccccc1)NC(=O)[C@@H](NC(=O)[C@H](CC(N)=O)NC(=O)C(C)(C)NC(=O)[C@@H](Cc1ccc(O)cc1)NC(C)=O)[C@@H](C)O)C(=O)N[C@@H](Cc1c[nH]c2ccccc12)C(N)=O` [Compound No. 727, Ac-D-Tyr-Aib-Asn-Thr-Phe-AzaGly-Leu-Arg(Me)-Trp-NH2] (Ac-[dY][Aib]NTF[azaGly]L[Arg(Me)]W-NH2), 1.5.

In the case of `CNC(=N)NCCC[C@H](NC(=O)[C@H](CC(C)C)NC(=O)NNC(=O)[C@H](Cc1ccccc1)NC(=O)[C@@H](NC(=O)[C@H](CC(N)=O)NC(=O)c1ccccc1NC(=O)[C@@H](Cc1ccc(O)cc1)NC(C)=O)[C@@H](C)O)C(=O)N[C@@H](Cc1c[nH]c2ccccc12)C(N)=O` [Compound No. 728, Ac-D-Tyr-Abz(2)-Asn-Thr-Phe-AzaGly-Leu-Arg(Me)-Trp-NH2] (Ac-[dY][2Abz]NTF[azaGly]L[Arg(Me)]W-NH2), the “Specific Activity: intracellular Ca ion level-increasing activity [specific activity to Metastin (1-54)]” value was 3.2.
